{
  "source": "patent US20100035943A1",
  "about": "“Oxa-and thiadiazoles and their use as metalloproteinase inhibitors” (VERNALIS (OXFORD) LTD, priority 2002, published 2010)",
  "key": {"[1]": {"system": "IL2-induced lymphocyte recruitment", "test": "IL2-induced peritoneal recruitment of lymphocytes", "format": "in vivo, C3H/HEN mice", "settings": "mice, 15 min prior to IL2, cells counted 24 hours after IL2", "experimental": "Administration of IL2 intraperitoneally causes migration of lymphocytes into the intraperitoneal cavity. This is a model for the cellular migration that occurs during inflammation.\nC3H/HEN mice (Elevage Janvier, France) were intraperitoneally injected with IL2 (Serono Pharmaceutical Research Institute, 20 μg/kg, in saline). Compounds of the invention were suspended in 0.5% carboxymethylcellulose (CMC)/0.25% tween-20 and were administered by sc or po route (10 ml/kg) 15 min prior to administration of IL2.\nTwenty-four hours after administration of IL2, peritoneal white blood cells were collected by 3 successive lavages of the peritoneal cavity with 5 ml phosphate buffered saline (PBS)-1 mM EDTA (+4° C.). The suspension was centrifuged (1700 g×10 min at +4° C.). The resulting pellet was suspended in 1 ml PBS-1 mM EDTA.\nLymphocytes were identified and counted using a Beckman/Coulter counter.\nThe animals were divided into 5 groups (6 mice each group):\nGroup 1: (baseline) received 0.5% CMC/0.25% tween-20 (vehicle of compound of the invention) and saline (vehicle of IL2); Group 2: (control IL2) received 0.5% CMC/0.25% tween-20 and injection of IL2; Group 3: Experimental group (Compound of the invention Dose 1) received a compound of the invention and injection of IL2; Group 4: Experimental group (Compound of the invention Dose 2) received a compound of the invention and injection of IL2; Group 5: Experimental group (Compound of the invention Dose 3) received a compound of the invention and injection of IL2; Group 6: Reference group received reference compound dexamethasone and injection of IL2\nInhibition of lymphocyte recruitment was calculated as follows:\nWhere Ly 1=Number of lymphocytes in group 1 (E3/μl), Ly 2=Number of lymphocytes in group 2 (E3/μl), Ly X=Number of lymphocytes in group X (3-5) (E3/μl)\nThe dose of compound of the invention required to inhibit lymphocyte recruitment by 50% (ID50) was calculated using a curve-fitting routine."}, "[2]": {"target": "T1, collagenase (MMP1) (Homo sapiens, UniProt P03956)", "T1 sequence (P03956 100-469)": "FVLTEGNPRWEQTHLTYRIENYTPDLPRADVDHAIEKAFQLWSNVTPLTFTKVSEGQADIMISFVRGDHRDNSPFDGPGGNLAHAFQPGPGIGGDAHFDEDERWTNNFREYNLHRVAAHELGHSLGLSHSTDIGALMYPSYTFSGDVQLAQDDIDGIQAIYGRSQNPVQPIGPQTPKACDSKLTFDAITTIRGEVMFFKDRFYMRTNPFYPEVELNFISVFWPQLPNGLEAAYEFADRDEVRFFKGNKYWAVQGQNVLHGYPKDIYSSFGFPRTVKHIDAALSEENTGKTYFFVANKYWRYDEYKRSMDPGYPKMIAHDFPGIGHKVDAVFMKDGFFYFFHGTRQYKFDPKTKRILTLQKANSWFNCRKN", "test": "MMP1 enzyme inhibition assay (fluorogenic peptide substrate McaPLGLDpaAR)", "format": "biochemical", "settings": "protocol as for MMP9 assay", "experimental": "(§1) Stock solutions were made up as follows: • Assay Buffer: 100 mM Tris-HCl pH 7.6 containing 100 mM NaCl, 10 mM CaCl2, and 0.05% Brij 35 • Substrate: 0.4 mM McaPLGLDpaAR (from Bachem) (0.437 mg/ml) stock solution in 100% DMSO (stored at −20° C.). Dilute to 8 μM in assay buffer. • Enzyme: Recombinant human 92 kDa gelatinase (MMP-9; APMA (4-aminophenyl • mercuric acetate)—activated if necessary) appropriately diluted in assay buffer.\n(§2) Test Compounds were prepared initially as 10 mM compound solution in 100% DMSO, diluted to 1 mM in 100% DMSO, then serially diluted 3-fold in 100% DMSO across columns 1-10 of a 96-well microtitre plate Assay concentration range, 100 μM (column 1) to 5.1 nM (column 10)\n(§3) The assay was performed in a total volume of 100 μl per well in 96-well microtitre plates. Activated enzyme (20 μl) was added to the wells followed by 20 μl of assay buffer. Appropriate concentrations of test compounds dissolved in 10 μl of DMSO were then added followed by 50 μl of McaPLGLDpaAR (8 μM, prepared by dilution of DMSO stock in assay buffer). For each assay ten concentrations of test compound were examined in duplicate. Control wells lack either enzyme or test compound. The reactions were incubated at 37° C. for 2 hours. The fluorescence at 405 nm was measured immediately with an SLT Fluostar fluorometer (SLT Labinstruments GmbH, Grödig, Austria) using 320 nm excitation, without stopping the reaction.\n(§4) The effect of the test compound was determined from the dose response curve generated by the 10 duplicate concentrations of inhibitor. The IC50 (the concentration of compound required to give a 50% decrease in enzyme activity) was obtained by fitting data to the equation, Y=a+((b−a)/(1+(c/X)^d)). (Y=inhibition achieved for a particular dose; X=the dose in nM; a=minimum y or zero % inhibition; b=maximum y or 100% inhibition; c=is the IC50; d=is the slope). The result was rounded to one significant figure.\n(§5) • Compounds were tested for inhibitory activity against collagenase (MMP1) in an assay using a coumarin-labelled peptide substrate, (7-methoxycoumarin-4-yl)acetyl-Pro-Leu-Gly-Leu-(3-[2,4-dinitrophenyl]-L-2,3-diaminopropionyl)-Ala-Arg-NH2 (McaPLGLDpaAR) (Knight et al, FEBS Lett. 1992; 263-266). The protocol for this assay was as described for the MMP9 assay above."}, "[3]": {"target": "metalloelastase (MMP12) (Homo sapiens, UniProt P39900)", "sequence (P39900 106-470)": "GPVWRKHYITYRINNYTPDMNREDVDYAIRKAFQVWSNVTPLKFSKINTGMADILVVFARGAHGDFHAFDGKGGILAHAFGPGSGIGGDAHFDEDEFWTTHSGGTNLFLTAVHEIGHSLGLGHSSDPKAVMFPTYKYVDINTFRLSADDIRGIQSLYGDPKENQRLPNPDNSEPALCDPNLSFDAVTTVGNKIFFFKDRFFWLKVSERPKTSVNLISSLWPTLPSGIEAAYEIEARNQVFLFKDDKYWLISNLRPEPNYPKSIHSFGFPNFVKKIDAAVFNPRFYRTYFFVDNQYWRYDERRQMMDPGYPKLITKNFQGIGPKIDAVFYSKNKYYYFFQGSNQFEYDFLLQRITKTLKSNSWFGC", "test": "MMP12 enzyme inhibition assay (fluorogenic peptide substrate McaPLGLDpaAR)", "format": "biochemical", "settings": "protocol as for MMP9 assay", "experimental": "as §1, §2, §3, §4\nas §5, with “Compounds” for “• Compounds”, “metalloelastase (MMP12)” for “collagenase (MMP1)”"}},
  "data": [
    {"smiles": "CC(C)C[C@@H](C(=O)N[C@H](c1noc(-c2cccs2)n1)C(C)(C)C)[C@H](O)C(=O)NO", "note": "[Example 13, 2S-Hydroxy-3R-[1S-(5-thiophen-2-yl-[1,2,4]oxadiazol-3-yl)-2,2-dimethyl-propylcarbamoyl]-5-methyl Hexanohydroxamic Acid]", "values": [
      {"measurement": "ID50 for inhibition of IL2-induced peritoneal recruitment of lymphocytes", "setting": "[1]; Oral route", "result": 1, "unit": "mg/kg"},
      {"measurement": "ID50 for inhibition of IL2-induced peritoneal recruitment of lymphocytes", "setting": "[1]; Subcutaneous route", "result": 0.1, "unit": "mg/kg"},
      {"measurement": "IC50", "setting": "[2]", "result": "100 to 1000", "unit": "nM"},
      {"measurement": "IC50", "setting": "[3]", "result": "< 100", "unit": "nM"}
    ]}
  ]
}
